# Laboratory results as given in paper PMC6628624 (Toxins, 2019).
# Read-outs that look alike come from different tables or passages of the source.
# Legend:
# [1] = in vivo
# [2] = system: Caco-2 cells; details: human
# [3] = in vivo; details: male, Landrace × Large White × Duroc, pig, 0.1 mg/kg
# [4] = in vitro; details: human, Caco-2, Papp (apparent permeability coefficient)
# [5] = system: mice; details: mouse, in vivo, cited from earlier work
# [6] = rat, in vivo, sc; cited from earlier work
# [7] = system: rats; details: rat, in vivo; cited from earlier work
# [8] = pig, in vivo; cited from earlier work
# [9] = system: Caco-2 cells; details: cited from earlier work
# [10] = rat, in vivo; cited from earlier work
# [11] = monkey, in vivo; cited from earlier work
# [12] = male, Landrace × Large White × Duroc, swine, 0.1 mg/kg
# [13] = male, Landrace × Large White × Duroc, swine, po, 0.1 mg/kg
compound,measurement,setting,value
"COc1cc(=O)oc(/C=C/C=C/C=C/C(C)=C/[C@]2(C)O[C@H](C)[C@](C)(O)[C@H]2O)c1C [CTVD, Citreoviridin]",adverse clinical signs,[1],None
same,plasma CTVD concentration until 3 h after PO,"[1]; po, 0.1 mg/kg",almost no increase
same,time to eliminate CTVD in plasma,"[1]; male, Landrace × Large White × Duroc, swine",more than 40 h
same,F (bioavailability calculated using mean AUC∞ after PO and IV),[1]; [12],116.4%
same,Ft (bioavailability calculated using mean AUCt after PO and IV),[1]; [12],79.3%
same,Vd (apparent volume of distribution),"[1]; male, Landrace × Large White × Duroc, swine, iv, 0.1 mg/kg",1.5 ± 0.2 L
same,extrapolation estimate of AUC (from 48 h to infinity) relative to AUCt,"[1]; male, Landrace × Large White × Duroc, swine, po",68 % of AUCt
same,Kel (rate constant),[1]; [13],0.4 ± 0.2 ×10^−1 h^−1
same,Vd/F (apparent volume of distribution),[1]; [13],1.7 ± 0.3 L
same,Papp (apparent permeability coefficient),[2],42.6 ± 17.7 ×10^−6 cm/s
same,AUC(0-inf),[3]; iv,1510 ± 332 ng·h/mL
same,AUC(0-t),[3]; iv,1320 ± 224 ng·h/mL
same,MRT,[3]; iv,14.6 ± 1.2 h
same,half-life,[3]; iv,16.2 ± 4.3 h
same,AUC(0-inf),[3]; po,1760 ± 814 ng·h/mL
same,AUC(0-t),[3]; po,1050 ± 181 ng·h/mL
same,Cmax,[3]; po,38.2 ± 6.7 ng/mL
same,MRT,[3]; po,19.6 ± 4 h
same,Tmax,[3]; po,15 ± 6 h
same,half-life,[3]; po,21.4 ± 12.7 h
same,Papp,[4],52.2 ± 28.3 ×10⁻⁶ cm/s
same,LD50 (lethal dose 50%),[5]; ip,7.5 mg/kg
same,LD50 (lethal dose 50%),[5]; sc,3.6 to 11.8 mg/kg
same,CTVD still detected in the liver after 52 h,[6],< 1 % of the total administered dose
same,persistence of CTVD in organs at 52 h,[6],"remained in the liver, kidney, and heart"
same,time at which the concentration of CTVD was highest in the liver,[6],8 h
same,outcome of chronic low-dose administration,[7],rats died
CC1=C[C@H]2O[C@@H]3[C@H](O)C[C@](C)([C@@]2(CO)[C@H](O)C1=O)[C@]31CO1 [deoxynivalenol],bioavailability,[8],48–109.8%
same,elimination half-life,[8],7.2 to 15.2 h
same,Papp,[9]; Caco-2,0.19 ± 0.02 × 10^−6 cm/min
aflatoxin B1,elimination half-life,[10],91.8 h
CCCC[C@@H](C)[C@@H](OC(=O)C[C@@H](CC(=O)O)C(=O)O)[C@H](C[C@@H](C)C[C@H](O)CCCC[C@@H](O)C[C@H](O)[C@H](C)N)OC(=O)C[C@@H](CC(=O)O)C(=O)O [fumonisin B1],elimination half-life,[8],3.03 h
C[C@@H]1Cc2c(Cl)cc(C(=O)N[C@@H](Cc3ccccc3)C(=O)O)c(O)c2C(=O)O1 [ochratoxin A],bioavailability,[8],65.7%
same,elimination half-life,[8],84.5 h
same,elimination half-life,[11],840 h
C[C@H]1CCCC(=O)CCC/C=C/c2cc(O)cc(O)c2C(=O)O1 [zearalenone],bioavailability,[8],80–85%
same,Papp,[9]; Caco-2,10.4 ± 4.7 × 10^−6 cm/s
aflatoxin M1,Papp,[9],105.10 ± 7.98 ×10^−6 cm/s
